Assay results reported in PMC11001712, “Epiberberine: a potential rumen microbial urease inhibitor to reduce ammonia release screened by targeting UreG” (Applied Microbiology and Biotechnology, 2024).
Where two headings read alike, the source gives them in different places.

Key:
[1] = test system: urease of ruminal microbial crude protein; assay: Urease activity of ruminal microbial crude protein (phenol/hypochlorite); type: biochemical, rumen microorganisms; settings: Fig. 5A
Experimental: Ruminal microbial crude protein was collected by ultrasonication and centrifugation following a previously established method (Zhang et al. [2020b]). The urease activity of ruminal microbial crude protein was determined based on the amount of ammonia decomposed by urea through a modified phenol/hypochlorite reaction method (Krallmann-Wenzel [1985]), in which the urease activity without alkaloid and urea was set at 0, and the urease activity without alkaloid was set at 100%. The inhibition rate of alkaloid to inhibit urease activity was calculated by the following formula: Inhibitionrate%=1-A-B/C-D×100 where A represents the absorbance value of urease activity with alkaloid, B represents the absorbance value of urease activity with alkaloid but without urea, C represents the absorbance value of urease activity without alkaloid, and D represents the absorbance value of urease activity without alkaloid and urea. Each measurement was performed in triplicate.

[2] = test system: UreG; assay: UreG GTPase activity (Malachite Green Phosphate Assay); type: biochemical, rumen microorganisms of dairy cows; settings: for IC50: alkaloid 0, 6.25, 12.5, 25, 50 and 100 μM, triplicate, read-out: IC50 against UreG GTPase activity
[3] = test system: Helicobacter pylori; design: method as in Li et al. [2018]; settings: antibacterial study and urease activity in vivo; ref Li et al. [2018]; cited from earlier work
[4] = cited from earlier work
[5] = test system: urease of Helicobacter pylori; design: method as in Li et al. [2016]; settings: ref Li et al. [2016]; cited from earlier work
[6] = test system: urease; design: method as in Tan et al. [2017]; settings: ref Tan et al. [2017]; cited from earlier work
[7] = target: (UniProt A0A6M3RDS9); assay: UreG GTPase activity (Malachite Green Phosphate Assay); type: biochemical, rumen microorganisms of dairy cows; settings: alkaloid 0, 6.25, 12.5, 25, 50 and 100 μM; triplicate; read-out: IC50 against UreG GTPase activity
(UniProt A0A6M3RDS9), sequence (A0A6M3RDS9 1-203): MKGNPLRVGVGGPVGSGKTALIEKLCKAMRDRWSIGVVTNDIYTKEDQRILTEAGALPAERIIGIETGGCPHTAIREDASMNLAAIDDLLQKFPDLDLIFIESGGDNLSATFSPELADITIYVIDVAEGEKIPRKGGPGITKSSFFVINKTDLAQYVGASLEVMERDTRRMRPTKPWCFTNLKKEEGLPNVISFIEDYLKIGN

[8] = acute toxicity; ref Yi et al. [2013]; cited from earlier work
[9] = test system: UreG; settings: from trend of Km and Vmax with alkaloid concentration
Experimental: The kinetics assay of UreG by alkaloid was carried out by Michaelis–Menten equation, and the values of Michaelis–Menten constants (Km and Vmax) were calculated from the Lineweaver–Burk plots through the software of GraphPad Prism. The inhibition with various concentrations of alkaloids (0, 15.6, 62.5, and 250 µM) was measured at different concentrations of GTP substrate (0, 12.5, 25, 50, 100, and 200 µM).

[10] = target: UreG; assay: Isothermal titration calorimetry of nickel binding to UreG in presence of alkaloid; design: species or system rumen microorganisms of dairy cows; settings: for Effect on KD value between nickel and UreG / Effect on N value (nickel: UreG): 27 μM UreG, 1500 μM NiSO4, 238 μM alkaloid
Experimental: The inhibition mechanism of UreG by alkaloid was explored using ITC and CD spectroscopy, to reveal the effects of alkaloid on the combination of nickel towards UreG and the secondary structure of UreG. ITC measurements were carried out with an AutoITC200 microcalorimeter (GE, MA, USA) as described previously (Zhang et al. [2020a]). Briefly, 27 µM UreG was titrated with 1500 µM NiSO4 in the present of 238 µM alkaloid. The titration curve was fitted with the one-site binding model, and the final data was analyzed by ITC Analysis Module in the software of Origin 7.0 (OriginLab, MA, USA).

[11] = test system: UreG; assay: Circular dichroism spectroscopy of UreG secondary structure; design: species or system rumen microorganisms of dairy cows; settings: 233 μg/mL UreG, 88 μM alkaloid
Experimental: The CD spectra of UreG were recorded using Chirascan Plus spectrometer (Applied Photophysics Ltd., Surrey, UK) equipped with a 1-mm quartz cell, at measurement range between 190 and 260 nm, with 1 nm data pitch and bandwidth. To reduce interference from the background solution, 233 µg/mL UreG and 88 µM alkaloid were prepared using distilled water. The final CD spectrum of UreG was obtained by subtracting the background spectrum (distilled water or alkaloid) from the sample spectrum. The secondary structure proportions (α-helix, β-sheet, β-turn, and random coil) in UreG were calculated using CDNN (v.2.1) software (Applied Photophysics Ltd., Leatherhead, UK).

[12] = test system: rumen microbial urease (rumen fluid); assay: Ruminal microbial fermentation in vitro (NH3 and urea); type: cell-based, rumen microorganisms; settings: 15 mM urea; for Decrease in NH3 concentration: 12 h of incubation
Experimental: The study of ruminal microbial fermentation consisted of a control group and 3 epiberberine treatment groups, each containing 70 mL fresh rumen fluid and 140 mL anaerobic medium (Zhang et al. [2020c]). Epiberberine treatment groups with the final concentration of 2, 20, and 200 μM were pre-incubated in an anaerobic chamber at 39 °C for 15 min. Immediately after inoculation, 10 mL aliquots of mixed solution were transferred into Hungate tubes, urea with a final concentration of 15 mM was added into each tube. Three tubes were immediately collected from each group as 0 h samples; the others were sealed with rubber stoppers and cultured in an incubator. Samples were collected at 1, 2, 4, 8, and 12 h of incubation, with 3 tubes in each group. The collected tubes were immediately placed on ice to slow down fermentation; 400 μL of sample solution was mixed with 800 μL metaphosphoric acid solution (25% w/v) and centrifuged at 12,000 × g for 5 min. The supernatant was collected for the detection of NH3 and urea. NH3 content was measured by a modified phenol/hypochlorite reaction method. Urea concentration was determined using the diacetyl monoxime method kit following the manufacturer’s instructions (Jiancheng Bioengineering, Nanjing, China).

[13] = rat, in vivo, po; cited from earlier work

## CC(=O)NO [AHA, acetohydroxamic acid, reference compound]
[1]
  Inhibition rate of urease activity against ruminal microbial crude protein: 40%
[2]; Fig. 1A screening
  Inhibition rate of UreG GTPase activity: little effect

## COc1cc2c(cc1O)CC[n+]1cc3c(OC)c(OC)ccc3cc1-2 [Jatrorrizine chloride]
[2]
  IC50: 60.1 µM

## c1c2c(cc3c1OCO3)-c1cc3ccc4c(c3c[n+]1CC2)OCO4 [coptisine]
[3]
  Inhibitory effect on Helicobacter pylori among the 5 major protoberberine alkaloids: strongest inhibitory effect

## COc1ccc2cc3[n+](cc2c1OC)CCc1cc2c(cc1-3)OCO2 [berberine]
[4]; rats, ref Chen et al. [2017]
  Oral bioavailability: < 1%
[5]
  Inhibitory activity against urease of Helicobacter pylori: little inhibitory activity
[6]
  Inhibitory potential against urease based on IC50 (rank among 5 alkaloids): weakest one among the 5 alkaloids

## COc1cc2c(cc1OC)-c1cc3ccc(OC)c(OC)c3c[n+]1CC2 [Palmatine chloride]
[7]
  IC50: 94.8 µM

## COc1cc2c(cc1OC)-c1cc3ccc(OC)c(OC)c3c[n+]1CC2 [palmatine]
[8]
  Median lethal dose: 1533.7 mg/kg

## c1c2c(cc3c1OCO3)-c1cc3ccc4c(c3c[n+]1CC2)OCO4 [Coptisine chloride]
[2]
  IC50: 86.6 µM
[2]; ratio of inhibition rates
  Inhibition rate of UreG GTPase activity relative to coptisine: 2.5 times

## COc1ccc2cc3[n+](cc2c1OC)CCc1cc2c(cc1-3)OCO2 [berberine chloride]
[9]
  Type of inhibition of UreG: mixed-type inhibitor
[10]
  Effect on KD value between nickel and UreG: slightly altered
  Effect on N value (nickel: UreG): slightly altered
[11]
  Secondary structural content changes of UreG: slight changes
[7]
  IC50: 43.2 µM

## COc1cc2c(cc1OC)-c1cc3ccc4c(c3c[n+]1CC2)OCO4 [epiberberine]
[9]
  Type of inhibition of UreG: uncompetitive inhibition type
[10]
  Effect on KD value between nickel and UreG: increased
  Effect on N value (nickel: UreG): decreased
[10]; 238 μM alkaloid
  Weaker binding of nickel and UreG compared to that of berberine chloride: 10.8 fold
[4]; rat, in vivo, po
  Oral bioavailability: 14.5%
[1]
  Inhibition rate of urease activity against ruminal microbial crude protein: significantly higher than that of berberine chloride and AHA
[11]
  Decrease in the α-helix content of UreG: ~ 56%
  Increasement in the β-sheet content of UreG: ~ 105%
[12]; 2 μM, after 8 h of incubation
  Urea remaining during fermentation: completely decomposed
[12]; 20 μM
  Decrease in NH3 concentration: 13.1%
[12]; 200 μM
  Decrease in NH3 concentration: 15.6%
[6]
  Inhibitory potential against urease based on IC50 (rank among 5 alkaloids): lowest IC50 value
[7]
  IC50: 56.9 µM
[13]
  Detection in urine, feces and bile: not detected
[8]
  Median lethal dose: 1360.0 mg/kg
